In patent US20240285571A1, “METHODS OF TREATING BONE INFECTIONS” (MICROBION CORPORATION, priority 2020, published 2024):

Columns and labels:
E. cloacae = experiment: Broth microdilution MIC (Example 5); type: cell-based, Enterobacter cloacae; conditions: Enterobacter cloacae, ATCCBAA2468
Experimental: Test and Comparator Agents: The test agents were stored at room temperature until assayed. […] The stock solutions were allowed to stand for at least 1 hr prior to use to auto-sterilize.
TestMedia: Test media were prepared and stored in accordance with guidelines from CLSI (4, 6, 7).
Broth Microdilution MC Testing (Aerobic Bacteria and Yeast): The broth microdilution assay method employed for the susceptibility testing of aerobic bacteria (excluding N. gonorrhoeae which was evaluated by agar dilution) and yeast essentially followed the procedures described by CLSI (3, 4, 7, 8) and employed automated liquid handlers to conduct serial dilutions and liquid transfers. […] These would become the ‘mother plates’ from which ‘daughter’ or test plates would be prepared. The drugs (300 μL at 40× the desired top concentration in the test plates) were dispensed into the appropriate well in Column 1 of the mother plates. The Biomek 2000 was used to make serial two-fold dilutions through Column 11 in the “mother plate”. […]
Plates were stacked 4 high, covered with a lid on the top plate, placed into plastic bags, and incubated at 35° C. for approximately 24-48 hr for all yeast isolates and 16-24 hr for aerobic bacteria. […] MIC endpoints for the test agents and control compounds were read per CLSI criteria (3, 7).

[1] = tested on: Pseudomonas aeruginosa biofilms (MR14, AG14); experiment: Activity against biofilms (Example 7); type: cell-based; conditions: MR14, MDR CF-isolate of P. aeruginosa; at 25 ng/mL
[2] = tested on: MABSC / M. abscessus biofilms; experiment: Activity against biofilms (Example 7); type: cell-based, Mycobacterium abscessus complex; conditions: AMT0130-8 MABSC CF-isolate

Compound	MIC (E. cloacae) [µg/mL]	Reduction in biofilm cell viability [1] [logs]	Reductions in biofilm cell viability [2]
OCC(S)CS.[Bi] (stereo not drawn) [MB-2B, bismuth-2,3-dimercaptopropanol]	32		
CC(S)C(C)S.[Bi] (stereo not drawn) [MB-6, bismuth-2,3-butanedithiol]		2	only very modest reductions
